Structures are written as SMILES. “And” between values parts separate entries of the source, which are not always exact repeats. Equal values may be shown once. Inconclusive results and toxic doses are left out.

This experiment relates to BDF1 mice, P388 leukemia ip, median survival T/C. Briefly: NCI In Vivo Anticancer Drug Screen. Data for tumor model P388 Leukemia (intraperitoneal) in B6D2F1 (BDF1) mice. As to conditions: endpoint: median survival time, higher = longer survival. In a few lines:
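Vehicle-dosed animals serve as the reference; survival of compound-dosed, tumour-implanted mice is divided by it.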

Where [1] appears, read: dose: 100.0 mg/kg/injection, schedule: Q04DX003 (ip), vehicle: saline with Tween-80.
[2] abbreviates: dose: 200.0 mg/kg/injection, schedule: Q04DX003 (ip), vehicle: saline with Tween-80.
[3] abbreviates: dose: 400.0 mg/kg/injection, schedule: Q04DX003 (ip), vehicle: saline with Tween-80.
Setting [4] is: dose: 20.0 mg/kg/injection, schedule: Q01DX009 (ip), vehicle: saline with Tween-80.
Setting [5] is: dose: 25.0 mg/kg/injection, schedule: Q04DX003 (ip), vehicle: saline with Tween-80.
The mark [6] stands for this setting: dose: 50.0 mg/kg/injection, schedule: Q04DX003 (ip), vehicle: saline with Tween-80.
The mark [7] stands for this setting: dose: 50.0 mg/kg/injection, schedule: Q01DX009 (ip), vehicle: saline with Tween-80.
Setting [8] is: dose: 100.0 mg/kg/injection, schedule: Q01DX009 (ip), vehicle: saline with Tween-80.
The mark [9] stands for this setting: dose: 100.0 mg/kg/injection, schedule: Q04DX003 (ip), vehicle: saline.
Setting [10] is: dose: 200.0 mg/kg/injection, schedule: Q04DX003 (ip), vehicle: saline.
Where [11] appears, read: dose: 400.0 mg/kg/injection, schedule: Q04DX003 (ip), vehicle: saline.
The mark [12] stands for this setting: dose: 100.0 mg/kg/injection, schedule: Q04DX003 (ip), vehicle: other.
The mark [13] stands for this setting: dose: 200.0 mg/kg/injection, schedule: Q04DX003 (ip), vehicle: other.
The mark [14] stands for this setting: dose: 100.0 mg/kg/injection, schedule: Q04DX003 (ip), vehicle: Klucel (hydroxypropylcellulose) (HPC).
Where [15] appears, read: dose: 200.0 mg/kg/injection, schedule: Q04DX003 (ip), vehicle: Klucel (hydroxypropylcellulose) (HPC).
Where [16] appears, read: dose: 50.0 mg/kg/injection, schedule: Q01DX009 (ip), vehicle: Klucel (hydroxypropylcellulose) (HPC).
The mark [17] stands for this setting: dose: 100.0 mg/kg/injection, schedule: Q01DX009 (ip), vehicle: Klucel (hydroxypropylcellulose) (HPC).
Setting [18] is: dose: 200.0 mg/kg/injection, schedule: Q01DX009 (ip), vehicle: Klucel (hydroxypropylcellulose) (HPC).
The mark [19] stands for this setting: dose: 100.0 mg/kg/injection, schedule: Q01DX009 (ip), vehicle: saline.
[20] abbreviates: dose: 200.0 mg/kg/injection, schedule: Q01DX009 (ip), vehicle: saline.
The mark [21] stands for this setting: dose: 400.0 mg/kg/injection, schedule: Q01DX009 (ip), vehicle: saline.
The mark [22] stands for this setting: dose: 50.0 mg/kg/injection, schedule: Q04DX003 (ip), vehicle: saline.
The mark [23] stands for this setting: dose: 100.0 mg/kg/injection, schedule: Q01DX001 (ip), vehicle: saline sonified.
The mark [24] stands for this setting: dose: 200.0 mg/kg/injection, schedule: Q01DX001 (ip), vehicle: saline sonified.

In the case of `NC(=S)c1ccncc1`, the T/C under setting [1] was 86 % of control, the T/C under setting [2] was 86 % of control and the T/C under setting [3] was 90 % of control.
Consider `CC(C)(C)SC(=O)C[Si](C)(C)C`, for which the T/C was 113 % of control under setting [1] and 123 % of control under setting [2].
Consider `CCN(CC)Cc1nc2nc(Cl)c(Cl)nc2[nH]1`, for which the T/C (dose: 5.0 mg/kg/injection, schedule: Q01DX009 (ip), vehicle: saline with Tween-80) was 112 % of control; the T/C (dose: 10.0 mg/kg/injection, schedule: Q01DX009 (ip), vehicle: saline with Tween-80) is 114 % of control; the T/C (dose: 12.5 mg/kg/injection, schedule: Q04DX003 (ip), vehicle: saline with Tween-80) is 114 % of control; the T/C under setting [4] is 98 % of control; the T/C under setting [5] was 100 % of control and 114 % of control; the T/C under setting [6] was 88 % of control and 100 % of control and 104 % of control.
For `CC(C)c1nsc(N)c1C(N)=O`, the T/C is, setting by setting: under setting [7], 92 % of control; under setting [8], 96 % of control.
On to `CSc1nc2c(N)nc(N)nc2nc1C`, for which the T/C under setting [1] is 100 % of control, the T/C under setting [2] was 108 % of control and the T/C under setting [3] was 108 % of control.
For the compound `Nc1nc(N)c2cc(S(=O)c3ccc4ccccc4c3)ccc2n1` (stereo not drawn), the T/C is 95 % of control under setting [7]; 95 % of control under setting [8]; 104 % of control (dose: 200.0 mg/kg/injection, schedule: Q01DX009 (ip), vehicle: saline with Tween-80).
As to `Nc1ccn([C@@H](C=O)O[C@@H](C=O)CO)c(=O)n1`, the T/C is 115 % of control (dose: 8.8 mg/kg/injection, schedule: Q01DX009 (ip), vehicle: saline); 100 % of control (dose: 66.0 mg/kg/injection, schedule: Q04DX003 (ip), vehicle: saline); 112 % of control under setting [9]; 120 % of control (dose: 150.0 mg/kg/injection, schedule: Q04DX003 (ip), vehicle: saline); 150 % of control under setting [10]; 181 % of control under setting [11].
In the case of `O=c1oc2ccccc2cc1-c1csc(/C=N/N2CCOCC2)n1`, the T/C under setting [7] is 113 % of control and the T/C under setting [8] was 104 % of control.
Turning to `CC(C(O)c1ccc(Br)cc1)C(O)(C(F)(F)F)C(F)(F)F` (stereo not drawn), the T/C under setting [12] was 100 % of control; the T/C under setting [13] is 100 % of control; the T/C (dose: 400.0 mg/kg/injection, schedule: Q04DX003 (ip), vehicle: other) was 100 % of control.
For the compound `CCSc1nc(C(OC)OC)c(Cc2ccccc2)c(=O)[nH]1`, the T/C was 90 % of control under setting [14]; 90 % of control under setting [15]; 90 % of control (dose: 400.0 mg/kg/injection, schedule: Q04DX003 (ip), vehicle: Klucel (hydroxypropylcellulose) (HPC)).
As for `CC(C)CNC(=O)C12CC3CC(CC(C3)C1)C2`, the T/C is 104 % of control (dose: 12.5 mg/kg/injection, schedule: Q01DX009 (ip), vehicle: saline with Tween-80); 107 % of control (dose: 25.0 mg/kg/injection, schedule: Q01DX009 (ip), vehicle: saline with Tween-80); 104 % of control under setting [7]; 101 % of control under setting [8].
Turning to `O=C1OC(=C(c2ccccc2)c2ccccc2)c2ccccc21`, the T/C under setting [16] is 100 % of control, the T/C under setting [17] was 100 % of control and the T/C under setting [18] is 100 % of control.
For `Cc1nc2ccc(O)cc2cc1CO`, the T/C (dose: 25.0 mg/kg/injection, schedule: Q01DX009 (ip), vehicle: saline) was 95 % of control; the T/C (dose: 50.0 mg/kg/injection, schedule: Q01DX009 (ip), vehicle: saline) was 100 % of control; the T/C under setting [19] is 99 % of control; the T/C under setting [20] is 109 % of control; the T/C under setting [21] was 111 % of control.
Turning to `COc1cc[n+]([O-])cc1/C=C/c1c[n+]([O-])ccc1OC`, the T/C is, setting by setting: under setting [5], 94 % of control; under setting [6], 119 % of control; under setting [1], 103 % of control; under setting [2], 108 % of control.
Take `N=Cc1c(O)[nH]c(=O)[nH]c1=O`: the T/C runs as follows: under setting [19], 109 % of control; under setting [9], 92 % of control; under setting [20], 109 % of control; under setting [10], 107 % of control; under setting [21], 118 % of control; under setting [11], 92 % of control.
With `COc1cc2c(c3c1c(=O)c1ccccc1n3C)C=CC(C)(C)O2`, the T/C is, setting by setting: (dose: 12.5 mg/kg/injection, schedule: Q01DX010 (ip), vehicle: saline) 100 % of control; (dose: 25.0 mg/kg/injection, schedule: Q01DX010 (ip), vehicle: saline) 90 % of control; (dose: 50.0 mg/kg/injection, schedule: Q01DX010 (ip), vehicle: saline) 90 % of control; (dose: 100.0 mg/kg/injection, schedule: Q01DX010 (ip), vehicle: saline) 90 % of control.
In the case of `CN(C)C`, the T/C was 100 % of control under setting [22], 100 % of control under setting [9] and 109 % of control under setting [10].
As to `CCOC(=O)c1nc(NC)sc1N`, the T/C was 97 % of control (dose: 25.0 mg/kg/injection, schedule: Q04DX003 (ip), vehicle: saline); 100 % of control under setting [22]; 105 % of control under setting [9]; 96 % of control under setting [10].
For the compound `CCCCCCCCCCCCSCCCCSCCCCCCCCCCCC`, the T/C by setting is: under setting [23], 100 % of control; under setting [24], 86 % of control.
Consider `COc1ccc(P(=S)(S)c2ccc(OC)cc2)cc1`, for which the T/C is 100 % of control under setting [17] and 95 % of control (dose: 300.0 mg/kg/injection, schedule: Q01DX009 (ip), vehicle: Klucel (hydroxypropylcellulose) (HPC)).
`CC(O)C(=O)N1Cc2cc3ccccc3nc2C1` (stereo not drawn): the T/C was 95 % of control (dose: 50.0 mg/kg/injection, schedule: Q01DX001 (ip), vehicle: saline sonified); 104 % of control under setting [23]; 95 % of control under setting [24].
Turning to `C#CCOC(=O)NCCC`, the T/C runs as follows: under setting [16], 110 % of control; (dose: 50.0 mg/kg/injection, schedule: Q04DX003 (ip), vehicle: Klucel (hydroxypropylcellulose) (HPC)) 95 % of control; under setting [17], 105 % of control; under setting [14], 104 % of control; under setting [18], 115 % of control; under setting [15], 104 % of control.
Consider `CCOC(=O)C(NC(=O)OCc1ccccc1)(OCc1ccccc1)C(C)C` (stereo not drawn), for which the T/C under setting [1] was 97 % of control, the T/C under setting [2] is 105 % of control and the T/C under setting [3] was 94 % of control.
On to `O=C1c2cc3c(cc2CCC1c1ccc2c(c1)OCO2)OCO3` (stereo not drawn), for which the T/C under setting [4] is 91 % of control; the T/C (dose: 40.0 mg/kg/injection, schedule: Q01DX009 (ip), vehicle: saline with Tween-80) was 91 % of control; the T/C (dose: 120.0 mg/kg/injection, schedule: Q01DX009 (ip), vehicle: saline with Tween-80) is 95 % of control; the T/C (dose: 240.0 mg/kg/injection, schedule: Q01DX009 (ip), vehicle: saline with Tween-80) was 91 % of control.
On to `CC[NH-].CC[NH-].[Br][Pt+2][Br]`, for which the T/C (dose: 20.0 mg/kg/injection, schedule: Q04DX003 (ip), vehicle: other) was 100 % of control; the T/C (dose: 30.0 mg/kg/injection, schedule: Q04DX003 (ip), vehicle: other) was 158 % of control; the T/C (dose: 44.0 mg/kg/injection, schedule: Q04DX003 (ip), vehicle: other) was 154 % of control and 166 % of control; the T/C (dose: 66.0 mg/kg/injection, schedule: Q04DX003 (ip), vehicle: other) is 159 % of control; the T/C under setting [12] is 166 % of control and 168 % of control; the T/C (dose: 150.0 mg/kg/injection, schedule: Q04DX003 (ip), vehicle: other) is 154 % of control. For the same compound, the T/C under setting [13] is 162 % of control.

The values are drawn from PubChem BioAssay AID328 (DTP/NCI, 2004).
